Results published in patent US20220162167A1, “SUBSTITUTED BICYCLIC AND TETRACYCLIC QUINONES AND USE THEREOF AS ANTI-CANCER AGENTS” (THE REGENTS OF THE UNIVERSITY OF MICHIGAN, priority 2019, published 2022).

Experiments:
Type in all cases: cell-based
CCRF-CEM = assay: NCI60 growth inhibition, CCRF-CEM; conditions: Leukemia
Procedure, shortened: (§1)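 Read-out: growth inhibition in the NCI60 screen of 60 cancer cell lines.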

HL-60(TB) = assay: NCI60 growth inhibition, HL-60(TB); conditions: Leukemia
Procedure, shortened: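 Growth inhibition values come from the NCI60 cancer cell panel run at the National Cancer Institute.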

K-562 = assay: NCI60 growth inhibition, K-562; conditions: Leukemia
Procedure, shortened: as §1

MOLT-4 = assay: NCI60 growth inhibition, MOLT-4; conditions: Leukemia
Procedure, shortened: as §1

RPMI-8226 = assay: NCI60 growth inhibition, RPMI-8226; conditions: Leukemia
Procedure, shortened: as §1

SR = assay: NCI60 growth inhibition, SR; conditions: Leukemia
Procedure, shortened: as §1

A549/ATCC = assay: NCI60 growth inhibition, A549/ATCC; conditions: Non-Small Cell Lung Cancer
Procedure, shortened: as §1

EKVX = assay: NCI60 growth inhibition, EKVX; conditions: Non-Small Cell Lung Cancer
Procedure, shortened: as §1

HOP-62 = assay: NCI60 growth inhibition, HOP-62; conditions: Non-Small Cell Lung Cancer; also: test concentration or dose not given here
Procedure, shortened: as §1

HOP-92 = assay: NCI60 growth inhibition, HOP-92; conditions: Non-Small Cell Lung Cancer
Procedure, shortened: as §1

NCI-H226 = assay: NCI60 growth inhibition, NCI-H226; conditions: Non-Small Cell Lung Cancer; also: test concentration or dose not given here
Procedure, shortened: as §1

NCI-H23 = assay: NCI60 growth inhibition, NCI-H23; conditions: Non-Small Cell Lung Cancer
Procedure, shortened: as §1

NCI-H322M = assay: NCI60 growth inhibition, NCI-H322M; conditions: Non-Small Cell Lung Cancer
Procedure, shortened: as §1

NCI-H460 = assay: NCI60 growth inhibition, NCI-H460; conditions: Non-Small Cell Lung Cancer
Procedure, shortened: as §1

NCI-H522 = assay: NCI60 growth inhibition, NCI-H522; conditions: Non-Small Cell Lung Cancer
Procedure, shortened: as §1

COLO 205 = assay: NCI60 growth inhibition, COLO 205; conditions: Colon Cancer
Procedure, shortened: as §1

HCC-2998 = assay: NCI60 growth inhibition, HCC-2998; conditions: Colon Cancer
Procedure, shortened: as §1

HCT-116 = assay: NCI60 growth inhibition, HCT-116; conditions: Colon Cancer
Procedure, shortened: as §1

HCT-15 = assay: NCI60 growth inhibition, HCT-15; conditions: Colon Cancer; also: test concentration or dose not given here
Procedure, shortened: as §1

HT29 = assay: NCI60 growth inhibition, HT29; conditions: Colon Cancer
Procedure, shortened: as §1

KM12 = assay: NCI60 growth inhibition, KM12; conditions: Colon Cancer; also: test concentration or dose not given here
Procedure, shortened: as §1

SW-620 = assay: NCI60 growth inhibition, SW-620; conditions: Colon Cancer; also: test concentration or dose not given here
Procedure, shortened: as §1

SF-268 = assay: NCI60 growth inhibition, SF-268; conditions: CNS Cancer; also: test concentration or dose not given here
Procedure, shortened: as §1

SF-295 = assay: NCI60 growth inhibition, SF-295; conditions: CNS Cancer; also: test concentration or dose not given here
Procedure, shortened: as §1

SF-539 = assay: NCI60 growth inhibition, SF-539; conditions: CNS Cancer
Procedure, shortened: as §1

SNB-19 = assay: NCI60 growth inhibition, SNB-19; conditions: CNS Cancer; also: test concentration or dose not given here
Procedure, shortened: as §1

SNB-75 = assay: NCI60 growth inhibition, SNB-75; conditions: CNS Cancer; also: test concentration or dose not given here
Procedure, shortened: as §1

U251 = assay: NCI60 growth inhibition, U251; conditions: CNS Cancer
Procedure, shortened: as §1

LOX IMVI = assay: NCI60 growth inhibition, LOX IMVI; conditions: Melanoma
Procedure, shortened: as §1

CN1CCN(c2ccc3nc4c(nc3c2C(F)(F)F)C(=O)c2ncccc2C4=O)CC1 [Compound 50, 9-(4-methylpiperazin-1-yl)-10-(trifluoromethyl)pyrido[2,3-b]phenazine-5,12-dione]
Growth inhibition (% control) GIPRCNT (CCRF-CEM): 5.713 % control | Growth inhibition (% control) GIPRCNT (HL-60(TB)): −50.3957 % control | Growth inhibition (% control) GIPRCNT (K-562): −6.717 % control | Growth inhibition (% control) GIPRCNT (MOLT-4): −36.4229 % control | Growth inhibition (% control) GIPRCNT (RPMI-8226): 27.57 % control | Growth inhibition (% control) GIPRCNT (SR): −27.1607 % control | Growth inhibition (% control) GIPRCNT (A549/ATCC): −36.1751 % control | Growth inhibition (% control) GIPRCNT (EKVX): 5.133 % control | Growth inhibition (% control) GIPRCNT (HOP-62): −63.3298 % control | Growth inhibition (% control) GIPRCNT (HOP-92): 27.5 % control | Growth inhibition (% control) GIPRCNT (NCI-H226): −78.8735 % control | Growth inhibition (% control) GIPRCNT (NCI-H23): −39.656 % control | Growth inhibition (% control) GIPRCNT (NCI-H322M): 36.63 % control | Growth inhibition (% control) GIPRCNT (NCI-H460): −56.5637 % control | Growth inhibition (% control) GIPRCNT (NCI-H522): −67.5222 % control | Growth inhibition (% control) GIPRCNT (COLO 205): −94.9856 % control | Growth inhibition (% control) GIPRCNT (HCC-2998): −26.9174 % control | Growth inhibition (% control) GIPRCNT (HCT-116): 0.9838 % control | Growth inhibition (% control) GIPRCNT (HCT-15): −47.4718 % control | Growth inhibition (% control) GIPRCNT (HT29): −55.5144 % control | Growth inhibition (% control) GIPRCNT (KM12): 13 % control | Growth inhibition (% control) GIPRCNT (SW-620): 4.709 % control | Growth inhibition (% control) GIPRCNT (SF-268): 1.957 % control | Growth inhibition (% control) GIPRCNT (SF-295): −61.5894 % control | Growth inhibition (% control) GIPRCNT (SF-539): −52.4375 % control | Growth inhibition (% control) GIPRCNT (SNB-19): 17.8598 % control | Growth inhibition (% control) GIPRCNT (SNB-75): 5.296 % control | Growth inhibition (% control) GIPRCNT (U251): 0.9108 % control | Growth inhibition (% control) GIPRCNT (LOX IMVI): −50.1492 % control
